{"source": "paper PMC9251005", "about": "“CT295 Is Chlamydia trachomatis’ Phosphoglucomutase and a Type 3 Secretion Substrate” (Frontiers in Cellular and Infection Microbiology, 2022)", "assay_type_in_all_cases": "biochemical", "key": {"CT815-HIS": {"molecular_target": "T1, CT815-HIS (Chlamydia trachomatis, UniProt O84822)", "T1 construct": "gene glmM; pET28a, C-terminal polyhistidine tag, E. coli BL21(DE3), Ni-NTA and Superdex 200", "T1 sequence (O84822 whole entry)": "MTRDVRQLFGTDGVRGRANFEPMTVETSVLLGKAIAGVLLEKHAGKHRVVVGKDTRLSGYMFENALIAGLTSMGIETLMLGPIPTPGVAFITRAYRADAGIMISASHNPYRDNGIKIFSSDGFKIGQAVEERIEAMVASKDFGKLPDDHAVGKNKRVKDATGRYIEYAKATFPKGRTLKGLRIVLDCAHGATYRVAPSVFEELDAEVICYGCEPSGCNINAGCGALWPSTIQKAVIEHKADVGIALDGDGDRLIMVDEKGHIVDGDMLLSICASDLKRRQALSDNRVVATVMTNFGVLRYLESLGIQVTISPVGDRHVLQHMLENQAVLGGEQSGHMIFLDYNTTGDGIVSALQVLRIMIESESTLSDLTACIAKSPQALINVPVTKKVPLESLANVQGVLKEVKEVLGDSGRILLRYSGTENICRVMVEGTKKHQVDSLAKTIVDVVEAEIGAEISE", "test": "HPAEC-PAD product analysis", "settings": "0.66 mg/ml Glc1P, 0.2 mg/ml Glc1,6diP, 0.1 mg/ml enzyme, 10 mM Tris-HCl, 0.5 mM MgSO4, pH 8.0, 37°C, 20 min"}, "CpsG-HIS [1]": {"molecular_target": "T2, CpsG-HIS (Escherichia coli, UniProt P24175)", "T2 construct": "gene manB; C-terminal polyhistidine tag, E. coli BL21(DE3), Ni-NTA and Superdex 200", "T2 sequence (P24175 1-456)": "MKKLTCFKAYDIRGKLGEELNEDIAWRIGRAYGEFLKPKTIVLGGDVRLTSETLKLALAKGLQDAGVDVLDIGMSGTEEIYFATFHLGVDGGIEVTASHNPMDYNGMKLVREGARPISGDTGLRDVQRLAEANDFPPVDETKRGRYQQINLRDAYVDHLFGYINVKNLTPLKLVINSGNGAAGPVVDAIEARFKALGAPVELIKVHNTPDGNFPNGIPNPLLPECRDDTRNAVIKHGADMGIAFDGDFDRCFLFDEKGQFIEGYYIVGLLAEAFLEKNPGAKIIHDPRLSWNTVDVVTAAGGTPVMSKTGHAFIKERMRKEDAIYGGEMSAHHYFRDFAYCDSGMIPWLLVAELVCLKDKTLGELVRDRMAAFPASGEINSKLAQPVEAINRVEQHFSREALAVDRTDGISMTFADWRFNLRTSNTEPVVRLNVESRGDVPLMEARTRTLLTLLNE", "test": "HPAEC-PAD product analysis", "settings": "0.66 mg/ml Glc1P, 0.2 mg/ml Glc1,6diP, 0.1 mg/ml enzyme, 10 mM Tris-HCl, 0.5 mM MgSO4, pH 8.0, 37°C, 20 min"}, "CCA00344-HIS": {"molecular_target": "T3, CCA00344-HIS (Chlamydia caviae, UniProt Q823R2)", "T3 construct": "gene CCA_00344; C-terminal polyhistidine tag, E. coli BL21(DE3), Ni-NTA and Superdex 200", "T3 sequence (Q823R2 entry or part of it)": "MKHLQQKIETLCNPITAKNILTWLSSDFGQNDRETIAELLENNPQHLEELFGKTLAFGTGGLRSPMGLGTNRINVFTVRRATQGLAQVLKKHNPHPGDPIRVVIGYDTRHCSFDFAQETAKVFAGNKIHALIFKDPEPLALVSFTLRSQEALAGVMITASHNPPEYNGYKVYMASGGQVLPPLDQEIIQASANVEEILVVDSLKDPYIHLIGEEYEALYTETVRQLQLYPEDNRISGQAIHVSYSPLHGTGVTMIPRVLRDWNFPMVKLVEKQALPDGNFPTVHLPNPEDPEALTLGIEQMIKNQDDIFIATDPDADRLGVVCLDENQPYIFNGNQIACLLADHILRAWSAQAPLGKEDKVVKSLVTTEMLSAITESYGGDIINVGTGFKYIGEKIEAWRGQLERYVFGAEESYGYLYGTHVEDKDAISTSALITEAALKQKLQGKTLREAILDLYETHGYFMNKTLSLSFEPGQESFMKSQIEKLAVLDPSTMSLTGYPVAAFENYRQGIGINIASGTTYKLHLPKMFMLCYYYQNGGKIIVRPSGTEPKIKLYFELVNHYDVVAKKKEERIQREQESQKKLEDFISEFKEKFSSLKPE", "test": "HPAEC-PAD product analysis", "settings": "0.2 mg/ml Glc1,6diP, 0.1 mg/ml enzyme, 10 mM Tris-HCl, 0.5 mM MgSO4, pH 8.0, 37°C, 20 min"}, "Flag-CT295": {"molecular_target": "T4, Flag-CT295 (Chlamydia trachomatis, UniProt O84297)", "T4 construct": "gene mrsA_1; N-terminal Flag tag, expressed in HEK293T, immobilised on anti-Flag beads", "T4 sequence (O84297 entry or part of it)": "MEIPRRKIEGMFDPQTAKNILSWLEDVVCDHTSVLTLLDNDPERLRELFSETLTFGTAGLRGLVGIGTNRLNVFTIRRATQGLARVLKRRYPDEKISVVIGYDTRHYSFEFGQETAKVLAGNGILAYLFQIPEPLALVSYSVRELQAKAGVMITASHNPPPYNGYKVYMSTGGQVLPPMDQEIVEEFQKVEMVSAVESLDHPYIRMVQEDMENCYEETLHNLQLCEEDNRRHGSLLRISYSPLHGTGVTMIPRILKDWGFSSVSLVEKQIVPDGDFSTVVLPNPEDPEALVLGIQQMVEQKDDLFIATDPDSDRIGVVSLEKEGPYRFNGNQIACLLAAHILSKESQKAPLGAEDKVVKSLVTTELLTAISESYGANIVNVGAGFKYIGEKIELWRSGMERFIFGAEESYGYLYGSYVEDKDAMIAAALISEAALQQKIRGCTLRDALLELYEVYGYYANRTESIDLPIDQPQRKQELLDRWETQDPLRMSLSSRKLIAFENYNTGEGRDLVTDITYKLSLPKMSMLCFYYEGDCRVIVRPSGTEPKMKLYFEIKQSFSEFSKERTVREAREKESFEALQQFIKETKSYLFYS", "test": "HPAEC-PAD product analysis, enzyme on anti-Flag beads", "settings": "0.66 mg/ml Glc1P, no Glc1,6diP, 10 mM Tris-HCl, 0.5 mM MgSO4, pH 8.0, 37°C, 20 min; immobilised enzyme"}, "CpsG-HIS [2]": {"molecular_target": "T2, CpsG-HIS", "test": "HPAEC-PAD product analysis with and without cofactor", "settings": "0.2 mg/ml Glc1,6diP, 0.66 mg/ml Glc1P, 10 mM Tris-HCl, 0.5 mM MgSO4, pH 8.0, 37°C, 20 min"}}, "data": [{"smiles": "O=P(O)(O)O[C@H]1O[C@H](CO)[C@@H](O)[C@H](O)[C@H]1O", "note": "[Glc1P]", "values": [{"measurement": "HPAEC-PAD product analysis", "setting": "CT815-HIS", "value": "only low levels of Glc6P were detected in the presence of CT815-HIS"}, {"measurement": "HPAEC-PAD product analysis", "setting": "CpsG-HIS [1]", "value": "CpsG-HIS required the presence of Glc1,6diP to convert Glc1P into Glc6P"}, {"measurement": "HPAEC-PAD product analysis", "setting": "CCA00344-HIS; 0.66 mg/ml Glc1P", "value": "Incubation of Glc1P in the presence of CCA00344-HIS led to its full conversion into Glc6P"}, {"measurement": "HPAEC-PAD product analysis, enzyme on anti-Flag beads", "setting": "Flag-CT295", "value": "These data demonstrated the ability of CT295 to convert Glc1P into Glc6P"}]}, {"smiles": "O=P(O)(O)OC[C@H]1OC(O)[C@H](O)[C@@H](O)[C@@H]1O", "note": "(stereo partly drawn) [Glc6P]", "values": [{"measurement": "HPAEC-PAD product analysis", "setting": "CCA00344-HIS; 0.33 mg/ml Glc6P, reverse reaction", "value": "very low amounts of Glc1P were detected after incubation with CCA00344-HIS or CpsG-HIS"}]}, {"smiles": "O=P(O)(O)OC[C@H]1O[C@H](OP(=O)(O)O)[C@H](O)[C@@H](O)[C@@H]1O", "note": "[Glc1,6diP]", "values": [{"measurement": "HPAEC-PAD product analysis with and without cofactor", "setting": "CpsG-HIS [2]", "value": "CpsG-HIS required the presence of Glc1,6diP to convert Glc1P into Glc6P"}]}]}
